According to patent US7030110B2, “Cyclic oxyguanidine pyrazinones as protease inhibitors” (Ortho-McNeil Pharmaceuticals, Inc., priority 2000, dated 2006):
Structures can show the parent of a compound that is named as a salt.

Molecular target: T1, human α-thrombin (Homo sapiens, UniProt P00734)
T1 construct: Human α-thrombin, human factor Xa and human plasmin were obtained from Enzyme Research Laboratories; purchased Enzyme Research Laboratories (South Bend, Indiana)
Test: In vitro inhibition of purified thrombin, Ki determination (p-nitroanilide substrate hydrolysis)
Assay type: biochemical
Settings: purified human α-thrombin 0.5 nM; substrate N-succinyl-Ala-Ala-Pro-Arg-p-nitroanilide; 50 mM HEPES, 200 mM NaCl, pH 7.5; 37° C.
Text: Reagents: All buffer salts were obtained from Sigma Chemical Company (St. Louis, Mo.), and were of the highest purity available. The enzyme substrates, N-benzoyl-Phe-Val-Arg-p-nitroanilide (Sigma B7632), N-benzoyl-Ile-Glu-Gly-Arg-p-nitroanilide hydrochloride (Sigma B2291), N-p-Tosyl-Gly-Pro-Lys-p-nitroanilide (Sigma T6140), N-succinyl-Ala-Ala-Pro-Phe-p-nitroanilide (Sigma S7388) and N-CBZ-Val-Gly-Arg-p-nitroanilide (Sigma C7271) were obtained from Sigma. N-succinyl-Ala-Ala-Pro-Arg-p-nitroanilide (BACHEM L-1720) and N-succinyl-Ala-Ala-Pro-Val-p-nitroanilide (BACHEM L-1770) were obtained from BACHEM (King of Prussia, Pa.). […]
Ki Determinations: All assays are based on the ability of the test compound to inhibit the enzyme catalyzed hydrolysis of a peptide p-nitroanilide substrate. […] In general, substrate concentrations are lower than the experimentally determined value for Km. […]
In a typical K1 determination, into each well of a 96 well plate is pipetted […] of substrate solution, […] of test compound solution, and the plate allowed to thermally equilibrate at 37° C. in a Molecular Devices plate reader for >15 minutes. Reactions were initiated by the addition of a […] aliquot of enzyme and the absorbance increase at 405 nm is recorded for 15 minutes. […] The data are fit to a linear regression, and the value of the slope of the line calculated. […]

SMILES	Ki
Cc1ccc(CCNc2ncc(C)n(CC(=O)NC3CCN(C(=N)N)OC3)c2=O)cc1 (centres unmarked) [Example 1, N-(2-Carbamimidoyl-[1,2]oxazinan-5-yl)-2-[6-methyl-2-oxo-3-(2-p-tolylethylamino)-2H-pyrazin-1-yl]-acetamide trifluoroacetate]	0.6 to 1.3 nM
Cc1cnc(NCC(F)(F)c2ccccc2)c(=O)n1CC(=O)NCC1CNC(=N)NO1 (centres unmarked) [Example 2, 2-[3-(2,2-Difluoro-2-phenylethylamino)-6-methyl-2-oxo-2H-pyrazin-1-yl]-N-(3-imino-[1,2,4]oxadiazinan-6-ylmethyl)-acetamide Trifluoroacetate]	5 nM
